“And” between values parts separate entries of the source, which are not always exact repeats. Equal entries are not always repeated. Where two headings read alike, the source gives them in different places.
Tested on: Cryptococcus neoformans ATCC 90113
Assay: Antimicrobial microdilution assay against Cryptococcus neoformans (modified CLSI/NCCLS, optical density)
Assay type: cell-based
Details: for X more potent than Amphotericin B: C. neoformans, ratio of molar IC50 to Amphotericin B
Method: Summary: Various macrocyclic derivatives constructed in accordance with the presently disclosed and/or claimed inventive concept(s) were screened in vitro against Cryptococcus neoformans ATCC 90113 using a microdilution assay. The minimum fungicidal concentration (MFC), the lowest test concentration that kills the organism, was determined in broth media.
Antimicrobial assay: Cryptococcus neoformans ATCC 90113 were obtained from the American Type Culture Collection (Manassas, VA.). The susceptibility testing was performed using a modified version of the CLSI (formerly NCCLS) methods (see below), and optical density was used to monitor growth. Samples were serially diluted in 20% DMSO/saline and transferred in duplicate to 96-well flat bottom microplates. Microbial inocula were prepared by correcting the OD630 of cell/spore suspensions in incubation broth RPMI at pH 6.0 to afford final desired target inocula. Amphotericin B (“AMB;” ICN Biomedicals, OH) was used as drug control. The organism concentration was read at 630 nm using the Biotek Powerwave XS plate reader (Bio-Tek instruments, VT) prior to and after incubation. Minimum fungicidal concentrations were determined by removing 5 μL from each clear well, transferring to agar, and incubating until growth was seen. The MFC/MBC is defined as the lowest test concentration that kids the organism (allows no growth on agar).
References for NCCLS methods referenced above: 1 NCCLS. Reference method for broth dilution antifungal susceptibility testing of yeasts, Vol. 22. Approved standard, 2nd ed. Wayne: National Committee for Clinical Laboratory Standards; 2002: 1-51. 2 NCCLS. Reference method for broth dilution antifungal susceptibility testing of conidium forming filamentous fungi, Vol. 18. Proposed standard M38-P. Wayne: National Committee for Clinical Laboratory Standards; 1998: 1-39. 3 NCCLS. Methods for dilution antimicrobial susceptibility tests for bacteria that grow aerobically, Vol. 20. NCCLS Document M7-A5. Wayne: National Committee for Clinical Laboratory Standards; 2000: 1-58.
The term “IC50” as used herein will be understood to refer to a test concentration in mol/L that affords 50% inhibition of the microbe relative to negative and positive controls. […] The abbreviation “MFC” as used herein will be understood to refer to a minimum fungicidal concentration, or the lowest test concentration in mol/L that kills the organism. All IC50s are calculated using the XLfit® fit curve fitting software (ID Business Solutions Ltd, Guildford, Surrey, UK).
General Experimental Procedures. All organisms were obtained from the American Type Culture Collection (Manassas, VA) and include the fungi Candida albicans ATCC 90028, C. glabrata ATCC 90030, C. krusei ATCC 6258, and Cryptococcus neoformans ATCC 90113, and the bacteria Staphylococcus aureus ATCC 29213 and methicillin-resistant S. aureus ATCC 33591 (MRS). All organisms were tested using modified versions of the CLSI (formerly NCCLS) methods. For all organisms, optical density was used to monitor growth (NCCLS, Reference Method for Broth Dilution Antifungal Susceptibility Testing of Yeasts; Approved Standard M27-A2. National Committee on Clinical Laboratory Standards, 2002 22 (15); and NCCLS, Methods for Dilution Antimicrobial Susceptibility Tests for Bacteria that Grow Aerobically; Approved Standard, Seventh Edition M7-A7. National Committee on Clinical Laboratory Standards, 2006. 26(2)).
Samples (dissolved in DMSO) were serially-diluted in 20% DMSO/saline and transferred (10 μL) in duplicate to 96 well flat bottom microplates.

[1] = in vitro, C. neoformans ATCC 90113
[2] = in vitro, C. neoformans ATCC 90113, read-out: C. neoformans IC50 (mol/L)

| Structure (SMILES) | X more potent than Amphotericin B | C. neoformans IC50 [1] [µg/mL] | IC50 [2] [µM] | IC50 (read-out: IC50 against C. neoformans) [µM] |
| --- | --- | --- | --- | --- |
| C1CNCCN2CCCNCCN(C1)CC2.CC(=O)[O-].F[P-](F)(F)(F)(F)F.[Co+2] [ANC25, [Co(H2Bcyclam)(OAc)]PF6] | 0.03 | 4.360 | 8.91 | – |
| C1CN2CCNCCN(CCN1)CC2.CC(=O)[O-].F[P-](F)(F)(F)(F)F.[Co+2] [ANC27A, [Co(H2Bcyclen)(OAc)]PF6] | 0.02 | 5.030 | 10.9 | – |
| CN1CCCN2CCN(C)CCN(CC1)CC2.F[P-](F)(F)(F)(F)F.[Cl-].[Cl-].[Co+3] [DGJ031, [Co(B13N4)Cl2]PF6] | 0.02 | 4.980 | 9.67 | – |
| CN1CCCN2CCN(C)CCN(CC1)CC2.F[P-](F)(F)(F)(F)F.[Cl-].[Cl-].[Mn+3] [DLM10, [Mn(B13N4)Cl2]PF6] | 0.01 | 9.522 | 18.6 | – |
| CN1CCN2CCN(C)CCN(CC1)CC2.F[P-](F)(F)(F)(F)F.[Cl-].[Cl-].[Co+3] [DT06#2, [Co(Bcyclen)Cl2]PF6] | 0.04 | 3.390 | 6.78 | – |
| CC(=O)[O-].CC(=O)[O-].CN1CCN2CCN(CC1)CCN(Cc1ccc(CN3CCN4CCN(C)CCN(CC4)CC3)cc1)CC2.F[P-](F)(F)(F)(F)F.F[P-](F)(F)(F)(F)F.[Cu+2].[Cu+2] [JAV06, [Cu2(p-CB-Cyclens)(OAc)2][PF6]2] | 0.02 | 10.900 | 10.3 | – |
| Clc1ccc2c(N3CCNCCN(c4ccnc5cc(Cl)ccc45)CCNCC3)ccnc2c1.[Cl-].[Cl-].[Mn+2] [K-PAA2-0004-P8-TJH410, {[Mn(4,10-bis(7-chloroquinoline)cyclen]Cl2}] | 0.04 | 4.123 | 6.64 | – |
| CN1CCN2CCN(CC1)CCN(Cc1ccccn1)CC2.[Cl-].[Cl-].[Mn+2] [KRW37, [Mn(pic1Me1-CB-Cyclen)Cl]Cl] | 0.03 | 3.076 | 7.17 | – |
| CN1CCCN2CCN(CCCN(Cc3ccc(CN4CCCN5CCN(C)CCCN(CC5)CC4)cc3)CC2)CC1 [KS23, p-CB-cyclams] | 0.02 | 8.200 | 14.1 | – |
| CC(=O)[O-].CC(=O)[O-].CN1CCCN2CCN(CCCN(Cc3ccc(CN4CCCN5CCN(C)CCCN(CC5)CC4)cc3)CC2)CC1.F[P-](F)(F)(F)(F)F.F[P-](F)(F)(F)(F)F.[Co+2].[Co+2] [KS40, [Co2(p-CB-cyclams)(OAc)2](PF6)2] | 13 and 13.21 | 0.020 | ≤ 0.018 | < 0.018 |
| CC(=O)[O-].CC(=O)[O-].F[P-](F)(F)(F)(F)F.F[P-](F)(F)(F)(F)F.O.O.[Zn+2].[Zn+2].c1cc(CN2CCNCCN3CCN(CC3)CC2)cc(CN2CCNCCN3CCN(CC3)CC2)c1 [OB37, [Zn2(m-SB-Cyclens)(OAc)2][PF6]2•2H2O] | 0.32 | ≤ 0.800 | – | – |
| c1cc(CN2CCNCCCN3CCN(CC3)CC2)cc(CN2CCNCCCN3CCN(CC3)CC2)c1 [OB46, m-SB-Homocyclens] | 0.03 | 4.850 | 9.21 | – |
| F[P-](F)(F)(F)(F)F.F[P-](F)(F)(F)(F)F.F[P-](F)(F)(F)(F)F.F[P-](F)(F)(F)(F)F.O.O.[Cu+2].[Cu+2].c1cc(CN2CCNCCCN3CCN(CC3)CC2)ccc1CN1CCNCCCN2CCN(CC2)CC1 [OB49, [Cu2(p-SB-Homocyclens)][PF6]4•2H2O] | 0.38 | ≤ 0.800 | 0.63 | – |
| CC(=O)[O-].CC(=O)[O-].F[P-](F)(F)(F)(F)F.F[P-](F)(F)(F)(F)F.O.[Co+2].[Co+2].c1cc(CN2CCNCCCN3CCN(CC3)CC2)cc(CN2CCNCCCN3CCN(CC3)CC2)c1 [OB55, [Co2(m-SB-Homocyclens)(OAc)2][PF6]2•H2O] | 0.05 | 5.120 | 4.78 | – |
| CC(=O)[O-].CN1CCN2CCN(CC1)CCN(Cc1cc(Cl)nc(Cl)c1)CC2.F[P-](F)(F)(F)(F)F.[Co+2] [OB118, [Co(Me1dcp1-CB-cyclen)(OAc)]PF6] | 0.03 | 6.050 | 9.52 | – |
| CN1CCCN2CCN(C)CCCN(CC1)CC2.F[P-](F)(F)(F)(F)F.[Cl-].[Cl-].[Co+3] [SAH06#2, [Co(Bcyclam)Cl2]PF6] | 0.01 | 19.220 | 36.3 | – |
| c1ccc2[nH]c(CN3CCNCCN4CCN(CC4)CC3)nc2c1 [SJA219, SB-BI-cyclen] | 0.01 | 5.780 | 17.6 | – |
| CN1CCN2CCN(CC1)CCN(Cc1nc3ccccc3[nH]1)CC2 [SJA220, CB-BI-cyclen] | 0.02 | 5.160 | 15.1 | – |
| [Cl-].[Cl-].[Zn+2].c1ccc2[nH]c(CN3CCNCCN4CCN(CC4)CC3)nc2c1 [SJA222, [Zn(SB-BI-cyclen)(Cl)2]] | 0.03 | 2.610 | – | – |
| CC(=O)[O-].CC(=O)[O-].CN1CCN2CCN(CC1)CCN(Cc1nc3ccccc3[nH]1)CC2.[Zn+2] [SJA225, [Zn(CB-BI-cyclen)(OAc)2]] | 0.01 | 5.690 | – | – |
| CN1CCN2CCN(CC1)CCN(Cc1nc3ccccc3[nH]1)CC2.[Cl-].[Cl-].[Mn+2] [SJA227, [Mn(CB-BI-cyclen)(Cl)2]] | 0.04 | 1.930 | 5.63 | – |
| O=[N+]([O-])c1ccc(Cn2c(CN3CCNCCN4CCN(CC4)CC3)nc3ccccc32)cc1 [SJA229, SB-BINO2-cyclen] | 0.06 | 1.890 | 4.08 | – |
| CC(=O)[O-].CC(=O)[O-].O=[N+]([O-])c1ccc(Cn2c(CN3CCNCCN4CCN(CC4)CC3)nc3ccccc32)cc1.[Ni+2] [SJA232, [Ni(SB-BINO2-cyclen)(OAc)2]] | 0.02 | 5.070 | 10.9 | – |
| C1CNCCN2CCCNCCN(C1)CCC2.O.[Cl-].[Cl-].[Cl-].[Fe+3] [SLK36, Fe(H2PBCyclam)Cl3•H2O] | 0.03 | 3.330 | 7.92 | – |
| C1CNCCN2CCCNCCN(C1)CCC2.O.O.O.[Cl-].[Cl-].[Cl-].[Mn+3] [SLK37, Mn(H2PBCyclam)Cl3•3H2O] | 0.06 | 1.780 | 3.91 | – |
| C1CNCCN2CCCNCCN(C1)CCC2.CC(=O)[O-].F[P-](F)(F)(F)(F)F.F[P-](F)(F)(F)(F)F.F[P-](F)(F)(F)(F)F.[NH4+].[NH4+].[Ni+2] [SLK39B, [Ni(H2PBCyclam)(OAc)]PF6•2NH4PF6] | 0.03 | 5.890 | 7.1 | – |
| C1CNCCN2CCCNCCN(C1)CCC2.CC(=O)[O-].F[P-](F)(F)(F)(F)F.F[P-](F)(F)(F)(F)F.F[P-](F)(F)(F)(F)F.[Cu+2].[NH4+].[NH4+] [SLK40B, [Cu(H2PBCyclam)(OAc)]PF6•2NH4PF6] | 0.03 | 6.930 | 8.31 | – |
| [Cl][Fe-2]([Cl])([Cl])[Cl].[Cl][Fe-2]([Cl])([Cl])[Cl].[Fe+2].[Fe+2].c1cc(CN2CCCN3CCNCCCN(CC3)CC2)ccc1CN1CCCN2CCNCCCN(CC2)CC1 [TJH413B, [Fe2(H2-p-CB-cyclams)][FeCl4]2] | 0.03 | 7.380 | 6.95 | – |
